Measured values reported in patent publication US9522151B2, “Dosing regimen for Janus Kinase (JAK) inhibitors” (priority 2012, dated 2016).
pIC50: −log10 of the molar value. Values joined by “and” are separate entries in the source; they are usually repeats but may differ in a detail not shown here. Equal entries are not always repeated. Where two headings read alike, the source gives them in different places.

How the values were obtained:
[1] = test system: client owned dogs with a history of chronic atopic dermatitis; assay: Study in client owned dogs with chronic atopic dermatitis (Table 1); assay type: in vivo, dog; conditions: 0.19-0.39 mg/kg BID oral for 28 days; Day 1, 14 and 28
Procedure: A study was conducted in client owned dogs. Fifty-six dogs, greater than 1 year of age, weighing 2-50 kg, with a history of chronic atopic dermatitis were enrolled at three veterinary schools. The study design is illustrated in the following Table 1: […]

[2] = test system: dogs with moderate to severe itching (pruritus); assay: Pruritus Study A (placebo controlled); assay type: in vivo, dog
Source text: (§1) Investigators attributed pruritus to one or more of the following: allergic dermatitis, atopic dermatitis, food allergy, contact allergy, flea allergy, sarcoptic mange. Dogs were six months of age or older, weighed a minimum of 3 kg and were physically healthy apart from their pruritic condition. Dogs were flea-free, and appropriate preventatives and treatments were used throughout the studies. The studies were designed as follows in Table 2 and Table 3.

[3] = test system: dogs with moderate to severe itching (pruritus); assay: Pruritus Study B (prednisolone controlled); assay type: in vivo, dog; conditions: day 14; oral BID for 14 days (prednisolone 0.25-0.5 mg/kg, compound 1 0.4-0.6 mg/kg); time zero about 75 mm
Source text: as §1

[4] = test system: client-owned dogs with chronic non-seasonal atopic dermatitis; assay type: in vivo; conditions: 0.4-0.6 mg/kg BID oral
Source text: (§2) Minimum CADESI scores were assigned by a dermatologist or veterinarian (CADESI-01 score of 25 or CADESI-3 score of 60). Dogs were either 1 year of age or 6 months of age or older and weighed a minimum of 3 kg and were physically healthy apart from their atopic disease. The dogs had at least a 1 year or 6 month documented history of chronic non-seasonal atopic dermatitis. The dogs were flea free and appropriate preventatives and treatments were used throughout the study.
In these studies, animals were administered from 0.4-0.6 mg/kg body weight of a JAK inhibitor BID for up to 112 days.

laboratory dogs = assay: High dose BID safety study in 6 month old laboratory dogs; assay type: in vivo, dog
Procedure: A high dose (3 mg/kg BID) was given to 6 month old laboratory dogs.

[5] = test system: dogs with chronic non-seasonal atopic dermatitis; assay: Atopic Dermatitis Dose Selection Study; assay type: in vivo, dog; conditions: oral
Source text: as §2

laboratory-bred dogs = test system: laboratory-bred dogs
Procedure: A target animal safety program (8 studies) was conducted. 131 laboratory-bred dogs were exposed to N-methyl-1-{trans-4-[methyl(7H-pyrrolo[2,3-d]pyrimidin-4-yl)amino]cyclohexyl}methanesulfonamide maleate (i.e. N-methyl-1-{trans-4-[methyl(7H-pyrrolo[2,3-d]pyrimidin-4-yl)amino]cyclohexyl}methanesulfonamide maleic acid salt maleic acid salt). Doses ranged from 0.5 mg/kg/day (0.25 mg/kg BID) to 18 mg/kg/day (9 mg/kg BID). Duration of exposure ranged from 10 days to 6 months. Recovery periods were incorporated into two studies. A series of early studies were designed to ensure the safety of client-owned dogs in the field safety and efficacy studies.
In a “margin of safety” study, the following treatments were given: […]

[6] = dog, in vivo
Procedure: All doses are expressed in terms of mg/kg of free base. Serial blood samples for determination of pharmacokinetics were collected following Compound 1 administration. Blood samples at 0, 1, 4, 8, and 12 hours post dose were collected via jugular venipuncture into K2EDTA tubes and placed on ice until centrifuged. Harvested plasma was stored at approximately −20° C. until analysis.
Thirty-two beagle dogs (16 female, 16 male) were allocated to four treatment groups. Dogs in Treatment 1 received placebo capsule (0 mg/kg) orally. […] All dogs received a twice daily doses 0, 0.6, 1.8, and 3.0 mg/kg for weeks 1 through 6 and a single daily doses of 0, 0.6, 1.8, and 3.0 mg/kg for weeks 7 through 26. On pharmacokinetic sample collection days, dogs were fasted the previous night and fed four hours post dose administration. To calculate AUC0-24 for study days 53 and 168, steady-state was assumed and the 24 hour concentration was assumed to be equal to the 0 hour concentration, and used for the 0 hour concentration. As the actual doses of Compound 1 varied from the group target doses, the pharmacokinetic variables AUC0-τ, (AUC of the dosing interval), Cmax, and Cτ (trough concentration) were all normalized to the group target dose.

in vitro = conditions: human, Caco-2
Source text: The in vitro permeability of Compound 1 was experimentally determined in a Caco-2 cell monolayer study. […] The dog gastric pH has been reported to range from 1.08 to 2.0 (Sagawa, Li et al. 2009; Mahar, Portelli et al. 2012).

[7] = test system: cytokine receptors that share the common gamma chain (e.g. IL-2R, IL-4R); assay: Inhibition of cytokine function, common gamma chain receptors; assay type: cell-based; conditions: read-out: IC50's of representative family members
[8] = test system: JAK-1 dependent cytokines (e.g. IL-2, IL-4, IL-6, IL-13, and IL-31); assay: Inhibition of JAK-1 dependent cytokines; assay type: cell-based
[9] = test system: cytokines that are exclusively dependent on JAK2 function (EPO, GM-CSF); assay: Inhibition of cytokines exclusively dependent on JAK2; assay type: cell-based; conditions: ratio of IC50's
IL-12 and IL-23 = assay: Inhibition of cytokines that utilize JAK2/TYK2 and not JAK1; assay type: cell-based
[10] = test system: cytokine receptors that share the gp130 subunit (e.g. IL-6) as well as IL-13; assay: Inhibition of gp130 subunit cytokine receptors and IL-13; assay type: cell-based
[11] = test system: the IL-10 family, the IL-12 family (that share the p40 subunit), or the IL-3 family; assay: Inhibition of IL-10, IL-12 and IL-3 family cytokines; assay type: cell-based
[12] = dog, in vivo; remark: listed apart in the source
[13] = pH 5.5
physchem = conditions: pH 3.8
[14] = Other pharmacokinetic studies in dogs (IV and PO); conditions: for bioavailability: po

CNS(=O)(=O)C[C@H]1CC[C@H](N(C)c2ncnc3[nH]ccc23)CC1.O=C(O)/C=C\C(=O)O [Compound 1, N-methyl-1-{trans-4-[methyl(7H-pyrrolo[2,3-d]pyrimidin-4-yl)amino]cyclohexyl}methanesulfonamide maleate]
reduction in owner assessed VAS pruritus scores compared with placebo [1]: significantly (p≦0.07) different
owner VAS scores by day compared to placebo (T01) ([2]; 0.4-0.6 mg/kg BID oral for 7 days): lower each day starting on day 1
LS mean owner VAS score ([2]; day 7, 0.4-0.6 mg/kg BID oral, time zero about 75 mm, placebo about 55 mm): about 25 mm
LS mean owner VAS score [3]: about 18 mm
efficacy for the control of atopic dermatitis including pruritus [4]: excellent efficacy
effects observed (laboratory dogs; 0.6 mg/kg BID group): few effects
dogs with clinical signs of integument (demodex) (laboratory dogs; 3 mg/kg BID, 6 month old laboratory dogs): 7/8
Investigator CADESI score over 112 days, order of treatment groups from highest to lowest [5]: T01 (placebo), T04 (0.2-0.3 mg/kg SID compound 1), T03 (0.4-0.6 mg/kg SID compound 1), and T02 (0.4-0.6 mg/kg BID for 14 days followed by 0.4-0.6 mg/kg SID thereafter)
significant decreases in red blood cell parameters outside normal laboratory reference ranges (laboratory-bred dogs; 0.6 mg/kg dose): not detected
deaths or other serious adverse events (laboratory-bred dogs; 0.6, 1.8 or 3.0 mg/kg oral, BID weeks 1-6 then SID weeks 7-26): no observed deaths or other serious adverse events
increase in mean AUC0-12 from Day 0 to Day 21 ([6]; both, beagle, po): 40%
male/female differences in pharmacokinetic parameters [6]: there did not appear to be any systematic male/female differences
increase in AUC0-12 and Cmax with dose ([6]; po, 3 mg/kg): dose proportional from 0.6 to 3.0 mg/kg
Papp (in vitro): 40.4 ×10⁻⁶ cm/s
IC50 [7]: 63 nM to 249 nM and 0.021 µg/mL to 0.084 µg/mL
IC50 [8]: < 249 nM and < 0.084 µg/mL
fold less potent than the JAK1-dependent cytokines (IL-2, 4, 6, 13, and 31) [9]: 4-17 fold
pIC50 (IL-12 and IL-23): < 5.52
inhibition of cytokine receptor function [10]: inhibits the function
inhibition of cytokines [11]: it does not appear that compound 1 inhibits
impact of breed on pharmacokinetic profile [12]: breed does not impact the pharmacokinetic profile
solubility [13]: practically insoluble
solubility (physchem): 10.4 mg/mL
calculated fraction absorbed ([14]; based on bioavailability 85%, clearance 4 mL/min/kg, blood flow 40 mL/min/kg): greater than 0.9
half-life ([14]; dog, plasma): 4 h
clearance ([14]; dog, plasma, intravenous): 4 mL/min/kg
bioavailability ([14]; dog, plasma, absolute oral bioavailability, mean range, dogs): 79 to 89%
bioavailability ([14]; dog, plasma, bioavailability, value used to calculate fraction absorbed): 85%
volume of distribution ([14]; dogs): moderate volume of distribution
time of mean maximum plasma concentrations post dose ([14]; oral administration, dogs): approximately 1 hour

C[C@]12C=CC(=O)C=C1CC[C@@H]1[C@@H]2[C@@H](O)C[C@@]2(C)[C@H]1CC[C@]2(O)C(=O)CO [prednisolone, Prednisolone, reference compound]
LS mean owner VAS score [3]: about 10 mm
